Experimental data as given in PubChem BioAssay (NCI).
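48-hour exposure; five concentrations; linearly interpolated endpoints. Abbreviation: GI50, concentration required for 50% inhibition of growth. TGI: concentration producing complete growth inhibition.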

Assays:
Assay in all cases: NCI tumour cell line growth inhibition, 48 h
SK-OV-3 ovarian = system: SK-OV-3 ovarian
OVCAR-5 ovarian = system: OVCAR-5 ovarian
OVCAR-4 ovarian = system: OVCAR-4 ovarian
K-562 leukemia = system: K-562 leukemia
SF-268 CNS = system: SF-268 CNS
DU-145 prostate = system: DU-145 prostate
SN12C renal = system: SN12C renal
TK-10 renal = system: TK-10 renal
KM12 colon = system: KM12 colon

SMILES	TGI (SK-OV-3 ovarian)	TGI (OVCAR-5 ovarian)	TGI (OVCAR-4 ovarian)	TGI (K-562 leukemia)	TGI (SF-268 CNS)	TGI (DU-145 prostate)	TGI (SN12C renal)	TGI (TK-10 renal)	TGI (KM12 colon)	GI50 (SK-OV-3 ovarian)	GI50 (OVCAR-5 ovarian)	GI50 (OVCAR-4 ovarian)	GI50 (SF-268 CNS)	GI50 (SN12C renal)	GI50 (TK-10 renal)
COc1ccc2nc(NC(=O)/C(C#N)=C/c3ccccc3)sc2c1	> 100 µM	> 100 µM	> 100 µM	> 95.2 µM	> 100 µM	> 100 µM	> 100 µM	88 µM	> 73.3 µM						
O=C(CC(NC(=O)C(F)(F)F)C(=O)O)OCc1ccccc1 (stereo not drawn)	> 100 µM	> 100 µM	> 100 µM	> 100 µM	> 100 µM	> 100 µM	> 100 µM	> 100 µM	> 100 µM						
CC(C)C(Br)CCC1=CCC(Br)(Br)C1 (stereo not drawn)	28.1 µM	30.5 µM	24.2 µM	> 100 µM	31.2 µM	32.5 µM	15.2 µM	31.4 µM	27.5 µM						
NS(=O)(=O)c1nnc(NC(=O)N(c2ccccc2)c2ccccc2)s1	> 100 µM	70.1 µM	> 100 µM	> 100 µM	> 100 µM	41 µM	40.8 µM	> 100 µM	56.8 µM						
O=c1c(F)cn2c(=O)n1CCCCCCCn1c(=O)c(F)cn(c1=O)CCCCCCC2	> 100 µM	> 100 µM	98.4 µM	> 100 µM	13.1 µM	12.4 µM	> 100 µM	> 100 µM	> 100 µM						
NCCN1CCCCCc2ccccc21	> 10 µM		> 10 µM	> 10 µM	> 10 µM	> 10 µM	> 10 µM	> 10 µM	> 10 µM						
CC(=O)c1ccc(Oc2c3ccccc3nc3ccccc23)cc1	29.3 µM	23.9 µM	18.6 µM	20.1 µM	17.9 µM	15.2 µM	16 µM	19.8 µM	22.7 µM						
O=C(/C=C/c1ccc(Cl)cc1)Oc1ccc(C=C2CCC/C(=C\c3ccc(OC(=O)/C=C/c4ccc(Cl)cc4)cc3)C2=O)cc1	> 100 µM	> 100 µM	> 100 µM	> 100 µM	> 100 µM	> 100 µM	> 100 µM	> 100 µM	> 100 µM						
O=c1[nH]c(NCc2ccncc2)nc2nc[nH]c12	> 100 µM	> 100 µM	> 100 µM	> 100 µM	> 100 µM	> 100 µM	> 100 µM	> 100 µM	> 100 µM						
Cc1nc(N)c(N2CCN(C#N)CC2)c(=O)[nH]1		> 100 µM		> 100 µM	> 100 µM	> 100 µM	> 100 µM	> 100 µM	> 100 µM						
CN(C)C(=O)C(F)(F)C(c1ccc(F)cc1)C1C(=O)N(C)C(=O)N(C)C1=O (stereo not drawn)	> 100 µM	> 100 µM	> 100 µM		> 100 µM	> 100 µM		> 100 µM	> 100 µM						
CC(=O)Nc1nc(Cl)cc(NCC2(CO)CCC2)n1	> 100 µM	> 100 µM	> 100 µM	> 100 µM	> 100 µM	> 100 µM	> 100 µM		> 100 µM						
O=c1oc2ccccc2c(O)c1Cc1ccc(Cc2c(O)c3ccccc3oc2=O)cc1	> 100 µM	> 100 µM	> 100 µM	> 100 µM	> 100 µM	> 100 µM	> 100 µM	> 100 µM							
Nc1ncnc2c1nnn2C1C=CC(CP(=O)(O)O)C1 (stereo not drawn)	> 100 µM	> 100 µM	> 100 µM		> 100 µM	> 100 µM	> 100 µM	> 100 µM	> 100 µM						
OCc1cn(Cc2ccccc2)c2ccccc12	> 100 µM	0.838 µM		> 100 µM	40.2 µM	> 37.2 µM	> 46.8 µM		> 63.8 µM						
CCOC(=O)/C=C/c1nc(C#N)c(N)o1	> 100 µM	> 100 µM		> 100 µM	> 100 µM	> 100 µM	> 100 µM	> 100 µM	> 100 µM						
COc1ccc2ccc3oc(=O)c(C)cc3c2c1		> 100 µM	> 100 µM	> 100 µM	> 100 µM	> 100 µM	> 100 µM	> 100 µM	> 100 µM						
Clc1cccc(-c2sc(-c3cccs3)cc2Cc2cccs2)c1	> 10 µM		> 10 µM	> 10 µM	> 10 µM	> 10 µM	> 10 µM	> 10 µM	> 10 µM						
COC(=O)/C=C(\C)CC/C=C(\C)CCC1OC1(C)C (stereo not drawn)	> 75 µM	25.3 µM	22.2 µM	22 µM			20.8 µM	22.7 µM	20.8 µM						
O=C(c1ccco1)N(C(=O)N1CCCCC1)c1ccccc1	> 100 µM	> 100 µM		> 100 µM	> 100 µM	> 100 µM	> 100 µM	> 100 µM	> 100 µM						
CC(=O)O[C@@H](c1nccn1Cc1ccccc1)[C@H]1OC(C)(C)O[C@@H]1[C@H]1COC(C)(C)O1		> 100 µM	> 100 µM	> 100 µM	> 100 µM	> 100 µM	> 100 µM	> 100 µM	> 100 µM						
COC(=O)CNC(=O)C(CSC(=O)OCC1c2ccccc2-c2ccccc21)NC(=O)CCC(NC(=O)OCC1c2ccccc2-c2ccccc21)C(=O)OC (stereo not drawn)	74.6 µM	76.7 µM	33.4 µM	82.7 µM	51.9 µM	> 100 µM	> 100 µM	> 100 µM							
CN(/N=C1\C(=O)Nc2ccccc21)c1ccccc1	> 100 µM	> 100 µM	> 100 µM	> 100 µM	> 100 µM	> 100 µM		> 100 µM	> 100 µM						
O=C(COc1ccc(OCC(=O)N/N=C/c2ccc(-c3ccc(Cl)cc3Cl)o2)c(Cl)c1)N/N=C/c1ccc(-c2ccc(Cl)cc2Cl)o1		> 100 µM	> 100 µM	50.2 µM	> 100 µM	> 100 µM	> 100 µM	> 100 µM	> 100 µM						
CCCCCCCCCCCCCCCCCCOc1ccccc1CC(=O)NCC[N+]1(C)CCOCC1	32.4 µM	4.85 µM	23.3 µM		31.2 µM		6.21 µM	5.9 µM		13.9 µM	1.89 µM	6.42 µM	2.77 µM	2.26 µM	1.9 µM
